Experimental findings from ChEMBL document CHEMBL5120950, “Discovery and Mechanistic Study of Mycobacterium tuberculosis PafA Inhibitors” (J Med Chem, 2022) are described below.

The target in assay [1] is T1, Pup--protein ligase (Mycobacterium tuberculosis) (UniProt P9WNU7).
T1 sequence (whole entry): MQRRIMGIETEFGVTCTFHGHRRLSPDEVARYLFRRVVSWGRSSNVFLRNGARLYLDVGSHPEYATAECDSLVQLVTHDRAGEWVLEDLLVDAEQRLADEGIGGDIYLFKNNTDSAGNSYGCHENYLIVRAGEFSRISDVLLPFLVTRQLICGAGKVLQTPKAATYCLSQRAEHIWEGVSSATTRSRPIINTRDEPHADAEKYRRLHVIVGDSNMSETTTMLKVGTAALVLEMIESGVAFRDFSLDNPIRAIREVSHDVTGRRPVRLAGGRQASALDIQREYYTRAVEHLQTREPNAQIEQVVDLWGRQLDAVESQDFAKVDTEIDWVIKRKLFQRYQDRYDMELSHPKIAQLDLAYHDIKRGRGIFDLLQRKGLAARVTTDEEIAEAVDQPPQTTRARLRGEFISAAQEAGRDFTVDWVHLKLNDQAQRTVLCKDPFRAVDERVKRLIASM
The assay is described as follows: Inhibition of Mycobacterium tuberculosis PafA expressed in Escherichia coli BL-21(DE3) assessed as inhibition of pup-ylation using Mtb KasA substrate at 20 uM by SDS-PAGE analysis.

Assay [2] concerns the target T2, Pup--protein ligase (Corynebacterium glutamicum) (UniProt Q8NQE1).
T2 sequence (whole entry): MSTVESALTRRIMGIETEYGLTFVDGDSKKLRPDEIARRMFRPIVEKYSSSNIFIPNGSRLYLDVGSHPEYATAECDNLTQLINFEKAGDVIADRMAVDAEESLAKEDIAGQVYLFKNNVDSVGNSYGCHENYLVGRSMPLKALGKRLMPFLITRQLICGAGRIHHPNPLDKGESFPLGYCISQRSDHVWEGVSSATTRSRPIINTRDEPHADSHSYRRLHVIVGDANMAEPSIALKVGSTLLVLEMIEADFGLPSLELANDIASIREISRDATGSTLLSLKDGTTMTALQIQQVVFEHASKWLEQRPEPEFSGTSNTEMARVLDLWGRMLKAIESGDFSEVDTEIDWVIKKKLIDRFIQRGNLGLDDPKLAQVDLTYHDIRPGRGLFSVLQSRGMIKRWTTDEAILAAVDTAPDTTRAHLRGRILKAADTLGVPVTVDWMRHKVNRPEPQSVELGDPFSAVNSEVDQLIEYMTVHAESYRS
Description: Inhibition of Corynebacterium glutamicum PafA expressed in Escherichia coli BL-21(DE3) assessed as inhibition of pup-ylation using Mtb PanB substrate at 20 uM by SDS-PAGE analysis.

Assay [3] concerns the target T1, Pup--protein ligase (Mycobacterium tuberculosis). The assay is described as follows: Binding affinity to Mycobacterium tuberculosis PafA expressed in Escherichia coli BL-21(DE3) assessed as increase in thermal stability by measuring change in melting temperature in at 50 uM by CESTA analysis.
Assay [4] shares this target. The assay is described as follows: Inhibition of Mycobacterium tuberculosis PafA expressed in Escherichia coli BL-21(DE3) assessed as inhibition of pup-ylation using Mtb PknB substrate at 20 uM by SDS-PAGE analysis.
The target is the same in assay [5]. The assay is described as follows: Inhibition of Mycobacterium tuberculosis PafA expressed in Escherichia coli BL-21(DE3) assessed as inhibition of pup-ylation using Mtb PanB substrate at 20 uM by SDS-PAGE analysis.
Assay [6] has as its target T3, Pup--protein ligase (Mycobacterium tuberculosis, UniProt P9WNU7).
T3 sequence (P9WNU7 whole entry): T1 sequence (whole entry)
Description: Inhibition of Mycobacterium tuberculosis PafA expressed in Escherichia coli BL-21(DE3) assessed as inhibition of pup-ylation using Mtb PanB substrate by SDS-PAGE analysis.

Assay [7] deals with Mycobacterium tuberculosis. Description: Antimycobacterial activity against Mycobacterium tuberculosis H37Ra assessed as inhibition of growth measured after 7 days by microplate reader. The class given is functional. The following applies: 168 h, time 7 day.
In assay [8] the target is T1, Pup--protein ligase (Mycobacterium tuberculosis). The assay is described as follows: Inhibition of Mycobacterium tuberculosis PafA expressed in Escherichia coli BL-21(DE3) assessed as inhibition of pup-ylation using Mtb InhA substrate at 20 uM by SDS-PAGE analysis.
Assay [9] shares this target. The assay is described as follows: Inhibition of Mycobacterium tuberculosis PafA expressed in Escherichia coli BL-21(DE3) assessed as inhibition of pup-ylation using Mtb DHFR substrate at 20 uM by SDS-PAGE analysis.
Assay [10] has the same target. The assay is described as follows: Binding affinity to Mycobacterium tuberculosis PafA expressed in Escherichia coli BL-21(DE3) assessed as increase in thermal stability at 40 uM incubated for 15 mins at 25 degC followed by incubated at 52 to 72 degC for 5 mins by CESTA analysis.
In assay [11] the target is T4, Pup--protein ligase (Corynebacterium glutamicum, UniProt Q8NQE1).
T4 sequence (Q8NQE1 whole entry): T2 sequence (whole entry)
The assay is described as follows: Activation of Corynebacterium glutamicum PafA expressed in Escherichia coli BL-21(DE3) assessed as pup-ylation using Mtb KasA substrate by SDS-PAGE analysis.

Assay [12] deals with T4, Pup--protein ligase. The assay is described as follows: Activation of Corynebacterium glutamicum PafA expressed in Escherichia coli BL-21(DE3) assessed as pup-ylation using Mtb PanB substrate by SDS-PAGE analysis.
The target in assay [13] is T1, Pup--protein ligase (Mycobacterium tuberculosis). Description: Activation of Mycobacterium tuberculosis PafA expressed in Escherichia coli BL-21(DE3) assessed as pup-ylation using Mtb KasA substrate at 20 uM by SDS-PAGE analysis. The following applies: filed as activator.
Assay [14] shares this target. Description: Activation of Mycobacterium tuberculosis PafA expressed in Escherichia coli BL-21(DE3) assessed as pup-ylation using Mtb DHFR substrate at 20 uM by SDS-PAGE analysis. The settings on record: filed as activator.
Assay [15] has the same target. Description: Activation of Mycobacterium tuberculosis PafA expressed in Escherichia coli BL-21(DE3) assessed as pup-ylation using Mtb PknB substrate at 20 uM by SDS-PAGE analysis. The following applies: filed as activator.
The target is the same in assay [16]. Description: Activation of Mycobacterium tuberculosis PafA expressed in Escherichia coli BL-21(DE3) assessed as pup-ylation using Mtb PanB substrate at 20 uM by SDS-PAGE analysis. The settings on record: filed as activator.
Assay [17] shares this target. Description: Activation of Mycobacterium tuberculosis PafA expressed in Escherichia coli BL-21(DE3) assessed as pup-ylation using Mtb InhA substrate at 20 uM by SDS-PAGE analysis. The settings on record: filed as activator.

Each structure is given as a SMILES string. Values after ≈ are worked out from the molar mass of the structure shown. Active and inactive are the calls of the source. The rule behind the calls is not given here.

A word on the ΔTm: it is the change in melting temperature against a reference sample. A word on the IC50: it is the concentration at which inhibition is half-maximal. One may read the MIC90 as the lowest concentration that inhibits either 90% of growth or 90% of the strains tested, depending on the study. For `O=C(O)/C=C/c1ccc(-c2ccc(O)c(C34CC5CC(CC(C5)C3)C4)c2)cc1` [ADAROTENE], the inhibition entry in assay [1], in assay [2], in [4], in assay [5], in [8] and in [9] was “Active” throughout. Besides, the ΔTm in assay [3] turned out to be 2.5 °C. Besides, the IC50 on Pup--protein ligase [6] stood at 17.9 µM. Also, in assay [7], the MIC90 is 164 µM (≈ 61.4 µg/mL). Further, the result in [10] was Active.
As a reminder, the EC50 is the concentration that produces a half-maximal response. In the case of `COCCn1c2c([n+](Cc3cnccn3)c1C)C(=O)c1ccccc1C2=O` [SEPANTRONIUM], the results for the EC50 on Pup--protein ligase [11] and on Pup--protein ligase [12] were 2 µM and 1.7 µM, respectively.
`COCC[n+]1c2c(n(Cc3cnccn3)c1C)C(=O)c1ccccc1C2=O`: the result in assay [13], in assay [14], in [15], in [16] and in [17] was Active.
Consider `Oc1ccccc1Sc1cc(Cl)cc(Cl)c1`, for which the inhibition entry in assay [5] is “Active”.
In the case of `Oc1c(Cl)cc(Cl)cc1Sc1cc(Cl)cc(Cl)c1O` [BITHIONOL], in assay [5], the inhibition entry was “Active”. Further, at Pup--protein ligase [6], the IC50 is 15.9 µM. Besides, the MIC90 in assay [7] was 89.9 µM (≈ 32 µg/mL).
On to `Oc1ccccc1Sc1cc(Cl)cc(Cl)c1Cl`, for which, in assay [5], the inhibition entry is “Active”.
In the case of `Oc1ccc(Cl)cc1Sc1cc(Cl)cc(Cl)c1`, the inhibition result in assay [5] is “Active”.
